What was measured:
[1] = tested on: matched DNA (melting temperature experiment) (DNA, duplex) ATCGTCTCGGTATAA/TTATACCGAGACGAT; assay: UV melting at 260 nm; conditions: compound equimolar to DNA
[2] = tested on: CC mismatched DNA (melting temperature experiment) (DNA, mismatch bulge abasic) ATCGTCTCGGTATAA/TTATACCCAGACGAT; assay: UV melting at 260 nm; conditions: compound equimolar to DNA

C1CCC(P(CP(C2CCCCC2)C2CCCCC2)C2CCCCC2)CC1.[Pt+2].[Pt+2].[c-]1ccccc1-c1cccc(-c2ccccn2)n1.[c-]1ccccc1-c1cccc(-c2ccccn2)n1
ΔTm [1]: 0.5 °C
ΔTm [2]: 6.8 °C
